These results are taken from US20230167118A1, “DEGRADATION OF BRUTON'S TYROSINE KINASE (BTK) BY CONJUGATION OF BTK INIDBITORS WITH E3 LIGASE LIGAND AND METHODS OF USE” (BEIGENE, LTD., priority 2020, published 2023).

For one assay, the target named is T1, BTK (Homo sapiens, UniProt Q06187).
T1 construct: High control=Cell group with added DMSO and without compound, indicating microplate readings without BTK degradation; endogenous in cells; host or cells: TMD-8 cells
Nature of the assay: Cell Degradation: BTK degradation in TMD-8 cells, HTRF assay. It is filed as cell-based. Conditions: 6 h treatment, IC50 (DC50) of BTK degradation. The method, then: TMD-8 cells are treated with compounds in 0.2% DMSO, dilution is done according to the following protocol: (1) make 500× stock solution in DMSO from 1 mM by 6-fold dilution, total 8 doses were included; (2) make 2× solution in cell culture medium by transferring 0.5 μl 500× stock solution into 125 μl medium; (3) 15 μl of 2× solution is added to cells and incubate for 6 h.
After 6 h treatment, add […] 4×lysis buffer to each well; seal the plate and incubate 30 min at room temperature on a plate shaker; Once the cells are lysed, 16 μL of cell lysate are transferred to a PE 384-well HTRF detection plate; 4 μL of pre-mixed HTRF antibodies are added to each well; Cover the plate with a plate sealer, spin 1000 rpm for 1 min, Incubate overnight at room temperature; Read on BMG PheraStar with HTRF protocol (337 nm-665 nm-620 nm).
The inhibition (degradation) percentage of the compound was calculated by the following equation: Inhibition percentage of Compound=100-100× (Signal-low control)/(High control-low control), wherein signal=each test compound group
Dmax is the maximum percentage of inhibition (degradation).
The IC50 (DC50) value of a compound can be obtained by fitting the following equation
Y=Bottom+(TOP-Bottom)/(1+((IC50/X)^hillslope))
(§1) Wherein, X and Y are known values, and IC50, Hillslope, Top and Bottom are the parameters obtained by fitting with software. Y is the inhibition percentage (calculated from the equation), X is the concentration of the compound; IC50 is the concentration of the compound when the 50% inhibition is reached. The smaller the IC50 value is, the stronger the inhibitory ability of the compound is. Vice versa, the higher the IC50 value is, the weaker the ability the inhibitory ability of the compound is; Hillslope represents the slope of the fitted curve, generally around 1 *; Bottom represents the minimum value of the curve obtained by data fitting, which is generally 0%±20%; Top represents the maximum value of the curve obtained by data fitting, which is generally 100%±20%. The experimental data were fitted by calculating and analyzing with Dotmatics data analysis software.
(In general: TR-FRET usually uses a lanthanide donor and a delayed reading to cut background.)

A further assay has as its system HEK-293 cells. The experiment in a line: HEK-293 Cytotoxicity Assay (CellTiter-Glo). It is filed as cell-based. Conditions: Homo sapiens, HEK293, 72 h incubation, CellTiter-Glo luminescence. The method, then:
HEK-293 Cytotoxicity Assay
HEK-293 cells are treated with compounds diluted in 0.2% DMSO, dilution is done according to the following protocol: (1) make 500× stock solution in DMSO from 5 mM by 4-fold dilution, total 8 doses were included; (2) make 2× solution in cell culture medium by transferring 0.5 ul 500× stock solution into 125 ul medium; (3) 50 ul of 2× solution is added to cells and incubate for 72 h.
Add 25 μl of the CellTiter-Glo®Reagent [I (Promega)—Cat No. G7572] to each well in the 96-well plate. Mix contents for 2 minutes on an orbital shaker to induce cell lysis. Allow the plate to incubate at room temperature for 10 minutes to stabilize luminescent signal. Record luminescence on BMG PheraStar with luminescence protocol.
as §1, with “The IC50 value of a compound can be obtained by fitting the following equation. Y=Bottom+(TOP−Bottom)/(1+((IC50/X)^hillslope)) Wherein,” for “Wherein,”, “1*;” for “1 *;”
Background: In ATP-based viability assays light output follows the ATP content of the culture.

T1 sequence (Q06187 whole entry): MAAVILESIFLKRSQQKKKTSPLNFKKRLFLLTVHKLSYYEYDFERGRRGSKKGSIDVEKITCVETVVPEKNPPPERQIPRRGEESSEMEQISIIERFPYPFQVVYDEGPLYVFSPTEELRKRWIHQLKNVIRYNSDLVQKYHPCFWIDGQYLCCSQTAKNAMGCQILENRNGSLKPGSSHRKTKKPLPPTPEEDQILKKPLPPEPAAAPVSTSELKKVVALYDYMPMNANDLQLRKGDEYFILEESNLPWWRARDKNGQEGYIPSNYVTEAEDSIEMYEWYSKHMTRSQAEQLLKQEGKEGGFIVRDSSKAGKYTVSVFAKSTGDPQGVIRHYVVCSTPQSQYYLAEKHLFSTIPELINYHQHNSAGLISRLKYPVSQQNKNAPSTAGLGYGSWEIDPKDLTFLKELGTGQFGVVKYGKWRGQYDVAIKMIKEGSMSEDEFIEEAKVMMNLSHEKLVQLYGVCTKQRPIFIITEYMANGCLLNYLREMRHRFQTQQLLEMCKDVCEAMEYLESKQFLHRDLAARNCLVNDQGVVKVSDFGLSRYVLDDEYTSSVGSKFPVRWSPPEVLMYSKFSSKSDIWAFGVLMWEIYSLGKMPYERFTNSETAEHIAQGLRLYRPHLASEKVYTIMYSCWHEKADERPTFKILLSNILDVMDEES

By DC50 is commonly meant the concentration at which degradation of the target reaches its halfway point. Read a low DC50 as a more potent degrader. Usually IC50 stands for the concentration at which inhibition is half-maximal. High values mean weaker potency in that assay, low ones greater potency in that assay. In turn, `Cc1cc(-c2ncnc3[nH]c(-c4ccc(C5CCN(CC6CCN(c7ccc(N8CCC(=O)NC8=O)cc7)CC6)CC5)cc4)cc23)ccc1CNC(=O)c1nc(C(C)(C)C)no1` [Example 1, 3-(tert-butyl)-N-(4-(6-(4-(1-((1-(4-(2,4-dioxotetrahydropyrimidin-1(2H)-yl)phenyl)piperidin-4-yl)methyl)piperidin-4-yl)phenyl)-7H-pyrrolo[2,3-d]pyrimidin-4-yl)-2-methylbenzyl)-1,2,4-oxadiazole-5-carboxamide] returned a DC50 at BTK of 0.54 nM. Further, the IC50 in the assay with HEK-293 cells was > 10000 nM.
The corresponding values for `Cc1cc(-c2ncnc3[nH]c(-c4ccc(C5CCN(CC6CCN(c7cc8c(cc7F)C(=O)N(C7CCC(=O)NC7=O)C8=O)CC6)CC5)cc4)cc23)ccc1CNC(=O)c1nc(C(C)(C)C)no1` (centres unmarked) [Example 2, 3-(tert-butyl)-N-(4-(6-(4-(1-((1-(2-(2,6-dioxopiperidin-3-yl)-6-fluoro-1,3-dioxoisoindolin-5-yl)piperidin-4-yl)methyl)piperidin-4-yl)phenyl)-7H-pyrrolo[2,3-d]pyrimidin-4-yl)-2-methylbenzyl)-1,2,4-oxadiazole-5-carboxamide] are 1.75 nM and > 10000 nM.
The corresponding values for `Cc1cc(-c2ncnc3[nH]c(-c4ccc(C5CCN(CCC6CCN(c7ccc(N8CCC(=O)NC8=O)cc7)CC6)CC5)cc4)cc23)ccc1CNC(=O)c1nc(C(C)(C)C)no1` [Example 3, 3-(tert-butyl)-N-(4-(6-(4-(1-(2-(1-(4-(2,4-dioxotetrahydropyrimidin-1(2H)-yl)phenyl)piperidin-4-yl)ethyl)piperidin-4-yl)phenyl)-7H-pyrrolo[2,3-d]pyrimidin-4-yl)-2-methylbenzyl)-1,2,4-oxadiazole-5-carboxamide] are 3.8 nM and 1700 nM.
Take `Cc1cc(-c2ncnc3[nH]c(-c4ccc(C5CCN(CCC6CCN(c7ccc(C8CCC(=O)NC8=O)cc7)CC6)CC5)cc4)cc23)ccc1CNC(=O)c1nc(C(C)(C)C)no1` (centres unmarked) [Example 4, 3-(tert-butyl)-N-(4-(6-(4-(1-(2-(1-(4-(2,6-dioxopiperidin-3-yl)phenyl)piperidin-4-yl)ethyl)piperidin-4-yl)phenyl)-7H-pyrrolo[2,3-d]pyrimidin-4-yl)-2-methylbenzyl)-1,2,4-oxadiazole-5-carboxamide]: it took 2.3 nM to reach half-maximal degradation at BTK (DC50). This molecule also yielded an IC50 with HEK-293 cells of 3700 nM.
At BTK, `Cc1cc(-c2ncnc3[nH]c(-c4ccc(C5CCN(CC6CN(c7ccc(N8CCC(=O)NC8=O)cc7)C6)CC5)cc4)cc23)ccc1CNC(=O)c1nc(C(C)(C)C)no1` [Example 5, 3-(tert-butyl)-N-(4-(6-(4-(1-((1-(4-(2,4-dioxotetrahydropyrimidin-1(2H)-yl)phenyl)azetidin-3-yl)methyl)piperidin-4-yl)phenyl)-7H-pyrrolo[2,3-d]pyrimidin-4-yl)-2-methylbenzyl)-1,2,4-oxadiazole-5-carboxamide] registered a DC50 of 1 nM. In the assay on HEK-293 cells, this molecule showed an IC50 of 2960 nM.
As for `Cc1cc(-c2ncnc3[nH]c(-c4ccc(C5CCN(CCCC6CN(c7ccc8c(c7)C(=O)N(C7CCC(=O)NC7=O)C8=O)C6)CC5)cc4)cc23)ccc1CNC(=O)c1nc(C(C)(C)C)no1` (centres unmarked) [Example 6, 3-(tert-butyl)-N-(4-(6-(4-(1-(3-(1-(2-(2,6-dioxopiperidin-3-yl)-1,3-dioxoisoindolin-5-yl)azetidin-3-yl)propyl)piperidin-4-yl)phenyl)-7H-pyrrolo[2,3-d]pyrimidin-4-yl)-2-methylbenzyl)-1,2,4-oxadiazole-5-carboxamide], half-maximal degradation at BTK (DC50) was put at 1.7 nM. Further, the IC50 with HEK-293 cells was > 10000 nM.
The matching figures for `Cc1cc(-c2ncnc3[nH]c(-c4ccc(C5CCN(CC6CCN(c7ccc(N8CCC(=O)NC8=O)cc7)CC6)CC5)cc4)cc23)ccc1[C@@H](C)NC(=O)c1nc(C(C)(C)C)no1` [Example 7, (R)-3-(tert-butyl)-N-(1-(4-(6-(4-(1-((1-(4-(2,4-dioxotetrahydropyrimidin-1(2H)-yl)phenyl)piperidin-4-yl)methyl)piperidin-4-yl)phenyl)-7H-pyrrolo[2,3-d]pyrimidin-4-yl)-2-methylphenyl)ethyl)-1,2,4-oxadiazole-5-carboxamide]: 1.3 nM and 1600 nM.
Turning to `Cc1cc(-c2ncnc3[nH]c(-c4ccc(C5CCN(CC6CCN(c7ccc(N8CCC(=O)NC8=O)cc7)CC6)CC5)cc4)cc23)ccc1[C@H](C)NC(=O)c1nc(C(C)(C)C)no1` [Example 8, (S)-3-(tert-butyl)-N-(1-(4-(6-(4-(1-((1-(4-(2,4-dioxotetrahydropyrimidin-1(2H)-yl)phenyl)piperidin-4-yl)methyl)piperidin-4-yl)phenyl)-7H-pyrrolo[2,3-d]pyrimidin-4-yl)-2-methylphenyl)ethyl)-1,2,4-oxadiazole-5-carboxamide], it took 40.9 nM to reach half-maximal degradation at BTK (DC50). Moreover, the IC50 in the assay on HEK-293 cells was found to be 1960 nM.
In turn, `Cc1c(-c2ncnc3[nH]c(-c4ccc(C5CCN(CC6CCN(c7ccc(N8CCC(=O)NC8=O)cc7)CC6)CC5)cc4)cc23)cccc1N1CCn2c(cc3c2CC(C)(C)C3)C1=O` [Example 9, 1-(4-(4-((4-(4-(4-(3-(7,7-dimethyl-1-oxo-1,3,4,6,7,8-hexahydro-2H-cyclopenta[4,5]pyrrolo[1,2-a]pyrazin-2-yl)-2-methylphenyl)-7H-pyrrolo[2,3-d]pyrimidin-6-yl)phenyl)piperidin-1-yl)methyl)piperidin-1-yl)phenyl)dihydropyrimidine-2,4(1H,3H)-dione] yielded a DC50 on BTK of 7.2 nM. The molecule further showed an IC50 in the assay on HEK-293 cells of 746 nM.
The matching figures for `Cc1c(-c2ncnc3[nH]c(-c4ccc(N5CCN(CC6CCN(c7ccc(N8CCC(=O)NC8=O)cc7)CC6)CC5)nc4)cc23)cccc1N1CCn2c(cc3c2CC(C)(C)C3)C1=O` [Example 10, 1-(4-(4-((4-(5-(4-(3-(7,7-dimethyl-1-oxo-1,3,4,6,7,8-hexahydro-2H-cyclopenta[4,5]pyrrolo[1,2-a]pyrazin-2-yl)-2-methylphenyl)-7H-pyrrolo[2,3-d]pyrimidin-6-yl)pyridin-2-yl)piperazin-1-yl)methyl)piperidin-1-yl)phenyl)dihydropyrimidine-2,4(1H,3H)-dione]: 3.4 nM and > 10000 nM.
Consider `Cc1c(-c2ncnc3[nH]c(-c4ccc(N5CCN(CC6CCN(c7ccc(N8CCC(=O)NC8=O)cc7)CC6)CC5)cc4)cc23)cccc1N1CCn2c(cc3c2CC(C)(C)C3)C1=O` [Example 11, 1-(4-(4-((4-(4-(4-(3-(7,7-dimethyl-1-oxo-1,3,4,6,7,8-hexahydro-2H-cyclopenta[4,5]pyrrolo[1,2-a]pyrazin-2-yl)-2-methylphenyl)-7H-pyrrolo[2,3-d]pyrimidin-6-yl)phenyl)piperazin-1-yl)methyl)piperidin-1-yl)phenyl)dihydropyrimidine-2,4(1H,3H)-dione], for which the DC50 on BTK is 4.7 nM. For the same molecule, the IC50 in the assay with HEK-293 cells is > 10000 nM.
For the molecule `Cc1cc(-c2ncnc3[nH]c(-c4c(C)nn(C5CCN(CC6CCN(c7ccc(N8CCC(=O)NC8=O)cc7)CC6)CC5)c4C)cc23)ccc1[C@@H](C)N(C)C(=O)c1nc(C(C)(C)C)no1` [Example 155, (R)-3-(tert-butyl)-N-(1-(4-(6-(1-(1-((1-(4-(2,4-dioxotetrahydropyrimidin-1(2H)-yl)phenyl)piperidin-4-yl)methyl)piperidin-4-yl)-3,5-dimethyl-1H-pyrazol-4-yl)-7H-pyrrolo[2,3-d]pyrimidin-4-yl)-2-methylphenyl)ethyl)-N-methyl-1,2,4-oxadiazole-5-carboxamide], it took 13.3 nM to reach half-maximal degradation on BTK (DC50).
